Measured values published in US11524012B1, “Quinolone analogs and their salts, compositions, and method for their use” (Senhwa Biosciences, Inc., priority 2018, dated 2022).

Assay: Stability study of lyophilized Compound I with mannitol (Method A / Method B samples)
Format: physicochemical
Description: […] Each 30 mL Type I, clear glass sample vial with 20 mm Freeze Dry Stoppers (Flurotech™ coated) contained 150 mg of Compound I.
At each time point, a vial was removed from the stored condition and reconstituted with 10 mL of D5W and analyzed by HPLC method as discussed in Example 5 at 1 month, 2 months, 3 months, and/or 6 months. In Tables 18-18e, RRT matches the Compounds as shown below.
Sample Preparation—Method A: 10% Mannitol solution was prepared by weighing 200 g±1.0 g of mannitol into glass beaker, adding approximately 1500 mL of WFI (water for injection) to the beaker and stirring until mannitol was dissolved. The mannitol solution was transferred to a 2 L volumetric flask and made to volume with WFI, then poured back to the original beaker to sir and mix further. 1M HCl solution was prepared by adding 16.4 mL of HCl (37%) to a 200 mL volumetric flask containing approximately 100 mL of WFI, adding WFI to make 200 mL in volume, and inverting to mix the prepared solution.
To a tared 2 L Schott bottle containing a magnetic stirrer and wrapped in aluminum foil, 1020 g±1.0 g of the 10% mannitol solution was added. Then, 58.4 g±0.05 g of the 1M HCl solution was added to the 2 L Schott bottle and stirred for approximately 10 minutes. The solution prepared in the 2 L Schott bottle was purged with nitrogen which was continued throughout the manufacturing process. 30.22 g of Compound I (free base) was weighed then added to the 2 L Schott bottle containing 10% mannitol solution and 1 M HCl solution with continual magnetic stirring. The container used to weigh Compound I was rinsed with 3×10 mL of WFI and added to the Schott bottle. After Compound I dissolved (approximately 40 minutes), additional 650 g of WFI was added to the Schott bottle and the solution was stirred for approximately 10 minutes. The pH of the Compound I solution (in Schott bottle) was measured then adjusted to pH 4.5±0.1 using 1 M HCl solution. After each addition of 1 M HCl solution, the solution was stirred for several minutes prior to verifying the pH. Once the pH was adjusted, nitrogen purging was stopped. The pH adjusted Compound I solution was further diluted with WFI to a target weight of 2040 g±1.0 g and stirred.
The final solution (pH adjusted and diluted) was filtered (chain including PVD Fmembrane filter 0.45 μm and 0.22 μm; peristaltic filtration pump by Watson Marlow) in the Bigneat and the bottle containing the filtered solution was sealed. The filtered solution was pumped (Watson Marlow Flexicon PF6-B pump; 100 RPM) into 30 mL Schott Clear Glass vials (10.0 mL filtered solution each). The glass vials were partially stoppered with 20 mm Freeze Dry Stopper Flurotec (Daikyo Seiko) one vial at a time with sterilized utensils inside a fume hood (Envair B101+1.5R) and placed on freeze dryer trays. The freeze dryer trays were transferred into freeze dry chamber and vial probe was positioned (Lyostar II; FTS Kinetics). Lyophilization was performed using the lyophilization cycle listed below. After lyophilization cycle finished, the vials were back filled with N2 and the stopper was placed in situ, wiped down with isopropanol in the fume hood once removed from the freeze dryer, reconciled, then crimped. Seven vials out of 186 sample vials placed under the lyophilization cycle had smashed in the freeze dryer.
Sample Preparation—Method B (dissolved oxygen content ≤1 ppm): 2 L WFI was poured into a Schott bottled and degassed for 30 minutes with N2 until dissolved oxygen content was ≤1 ppm (dissolved oxygen meter and probe; Mettler Toledo). 10% Mannitol solution was prepared by adding […] of mannitol and 1000 mL of degassed WFI to a tared 2 L Schott bottle containing a magnetic stirrer and wrapped in aluminum foil. To the Schott bottle containing mannitol, 15 mL of 2M HCl was added and stirred for approximately 10 minutes. The resulting solution was sparged with N2 while stirring until dissolved oxygen content was ≤1 ppm (approx. 30 min). […]

[1] = Method A sample, 2-8° C./ambient % RH, 1 month
[2] = Method A sample, 2-8° C./ambient % RH, 2 months
[3] = Method A sample, 2-8° C./ambient % RH, 3 months
[4] = Method A sample, 2-8° C./ambient % RH, 6 months
[5] = Method A sample, 2-8° C./ambient % RH, 9 months
[6] = Method A sample, 2-8° C./ambient % RH, 12 months
[7] = Method A sample, 2-8° C./ambient % RH, 18 months
[8] = Method A sample, 2-8° C./ambient % RH, 24 months
[9] = Method A sample, 2-8° C./ambient % RH, 36 months
[10] = Method A sample, 2-8° C./ambient % RH, Initial
[11] = Method B sample, 5° C, 3 months
[12] = Method B sample, 5° C, 6 months

SMILES: Cc1cnc(CNC(=O)c2c(=O)c3ccc(N4CCCN(C)CC4)nc3n3c2sc2ccccc23)cn1 [Compound I, 2-(4-Methyl-[1,4]diazepan-1-yl)-5-oxo-5H-7-thia-1,11b-diaza-benzo[c]fluorene-6-carboxylic acid (5-methyl-pyrazin-2-ylmethyl)-amide]
- Appearance [1]: White powder
- Appearance (Reconstituted Solution) [1]: Clear, colorless
- Compound I by HPLC assay [1]: 101%
- Reconstitution Time [1]: 54 s
- Related Substances RRT 0.83 [1]: RRT 0.83: 0.41%
- Related Substances RRT 0.88 [1]: RRT 0.88: 0.05%
- Related Substances RRT 0.95A [1]: RRT 0.95A: 0.10%
- Related Substances RRT 0.95B [1]: RRT 0.95B: 0.06%
- Related Substances RRT 1.05 [1]: RRT 1.05: 0.18%
- Related Substances RRT 1.08 [1]: RRT 1.08: 0.17%
- Related Substances Total [1]: Total: 1.0%
- Water Content [1]: 0.16%
- pH [1]: 4.56
- Appearance [2]: White powder
- Appearance (Reconstituted Solution) [2]: Clear, colorless
- Compound I by HPLC assay [2]: 101%
- Reconstitution Time [2]: 55 s
- Related Substances RRT 0.88 [2]: RRT 0.88: 0.06%
- Related Substances RRT 0.95B [2]: RRT 0.95B: 0.06%
- Related Substances RRT 1.05 [2]: RRT 1.05: 0.17%
- Related Substances RRT 1.07 [2]: RRT 1.07: 0.15%
- Related Substances Total [2]: Total: 0.4%
- Water Content [2]: 0.20%
- pH [2]: 4.51
- Appearance [3]: White powder
- Appearance (Reconstituted Solution) [3]: Clear, colorless
- Compound I by HPLC assay [3]: 102%
- Reconstitution Time [3]: 41 s
- Related Substances RRT 0.88 [3]: RRT 0.88: 0.05%
- Related Substances RRT 0.95A [3]: RRT 0.95A: 0.05%
- Related Substances RRT 0.95B [3]: RRT 0.95B: 0.06%
- Related Substances RRT 0.96 [3]: RRT 0.96: 0.06%
- Related Substances RRT 1.05 [3]: RRT 1.05: 0.16%
- Related Substances RRT 1.07 [3]: RRT 1.07: 0.20%
- Related Substances Total [3]: Total: 0.6%
- Water Content [3]: 0.16%
- pH [3]: 4.45
- Appearance [4]: White powder
- Appearance (Reconstituted Solution) [4]: Clear, colorless
- Compound I by HPLC assay [4]: 100%
- Related Substances RRT 0.88 [4]: RRT 0.88: 0.09%
- Related Substances RRT 0.89 [4]: RRT 0.89: 0.05%
- Related Substances RRT 0.95B [4]: RRT 0.95B: 0.08%
- Related Substances RRT 0.96 [4]: RRT 0.96: 0.07%
- Related Substances RRT 1.05 [4]: RRT 1.05: 0.17%
- Related Substances RRT 1.07 [4]: RRT 1.07: 0.28%
- Related Substances Total [4]: Total: 0.7%
- Water Content [4]: 0.64%
- pH [4]: 4.25
- Appearance [5]: White powder
- Appearance (Reconstituted Solution) [5]: Clear, colorless
- Compound I by HPLC assay [5]: 100%
- Related Substances RRT 0.88 [5]: RRT 0.88: 0.06%
- Related Substances RRT 0.95B [5]: RRT 0.95B: 0.06%
- Related Substances RRT 0.96 [5]: RRT 0.96: 0.05%
- Related Substances RRT 0.97 [5]: RRT 0.97: 0.07%
- Related Substances RRT 1.05 [5]: RRT 1.05: 0.17%
- Related Substances RRT 1.07 [5]: RRT 1.07: 0.27%
- Related Substances Total [5]: Total: 0.7%
- Water Content [5]: 0.17%
- pH [5]: 4.46
- Appearance [6]: White powder
- Appearance (Reconstituted Solution) [6]: Clear, colorless
- Compound I by HPLC assay [6]: 101%
- Related Substances RRT 0.88 [6]: RRT 0.88: 0.09%
- Related Substances RRT 0.89 [6]: RRT 0.89: 0.07%
- Related Substances RRT 0.95B [6]: RRT 0.95B: 0.05%
- Related Substances RRT 0.96 [6]: RRT 0.96: 0.10%
- Related Substances RRT 0.97 [6]: RRT 0.97: 0.11%
- Related Substances RRT 1.05 [6]: RRT 1.05: 0.17%
- Related Substances RRT 1.07 [6]: RRT 1.07: 0.45%
- Related Substances Total [6]: Total: 1.0%
- Water Content [6]: 0.20%
- pH [6]: 4.47
- Appearance [7]: White powder
- Appearance (Reconstituted Solution) [7]: Clear, colorless
- Compound I by HPLC assay [7]: 98%
- Related Substances RRT 0.88 [7]: RRT 0.88: 0.05%
- Related Substances RRT 0.95B [7]: RRT 0.95B: 0.05%
- Related Substances RRT 0.96 [7]: RRT 0.96: 0.06%
- Related Substances RRT 0.97 [7]: RRT 0.97: 0.07%
- Related Substances RRT 1.04 [7]: RRT 1.04: 0.05%
- Related Substances RRT 1.05 [7]: RRT 1.05: 0.17%
- Related Substances RRT 1.07 [7]: RRT 1.07: 0.20%
- Related Substances Total [7]: Total: 0.6%
- Water Content [7]: 0.24%
- pH [7]: 4.23
- Appearance [8]: White powder
- Appearance (Reconstituted Solution) [8]: Clear, colorless
- Compound I by HPLC assay [8]: 99%
- Related Substances RPT 0.88 [8]: RPT 0.88: 0.06%
- Related Substances RPT 0.95B [8]: RPT 0.95B: 0.05%
- Related Substances RPT 0.96 [8]: RPT 0.96: 0.06%
- Related Substances RPT 0.97 [8]: RPT 0.97: 0.08%
- Related Substances RRT 0.89 [8]: RRT 0.89: 0.05%
- Related Substances RRT 1.05 [8]: RRT 1.05: 0.17%
- Related Substances RRT 1.07 [8]: RRT 1.07: 0.29%
- Related Substances Total [8]: Total: 0.8%
- Water Content [8]: 0.21%
- pH [8]: 4.37
- Appearance [9]: White powder
- Appearance (Reconstituted Solution) [9]: Clear, colorless
- Compound I by HPLC assay [9]: 101%
- Related Substances RRT 0.88 [9]: RRT 0.88: 0.06%
- Related Substances RRT 0.96 [9]: RRT 0.96: 0.06%
- Related Substances RRT 0.97 [9]: RRT 0.97: 0.06%
- Related Substances RRT 1.05 [9]: RRT 1.05: 0.18%
- Related Substances RRT 1.07 [9]: RRT 1.07: 0.24%
- Related Substances Total [9]: Total: 0.6%
- Water Content [9]: 0.28%
- pH [9]: 4.48
- Appearance [10]: White powder
- Appearance (Reconstituted Solution) [10]: Clear, colorless
- Compound I by HPLC assay [10]: 101.5%
- Related Substances RRT 1.05 [10]: RRT 1.05: 0.18%
- Related Substances RRT 1.06 [10]: RRT 1.06: 0.08%
- Related Substances RRT 1.08 [10]: RRT 1.08: 0.06%
- Related Substances Total [10]: Total: 0.3%
- Water Content [10]: 0.14%
- pH [10]: 4.45
- Appearance (Method B sample, 5° C, 1 month): White powder
- Appearance (Reconstituted Solution) (Method B sample, 5° C, 1 month): Clear, colorless
- Compound I by HPLC assay (Method B sample, 5° C, 1 month): 99.5%
- Reconstitution Time (Method B sample, 5° C, 1 month): 60 s
- Related Substances RRT 1.06 (Method B sample, 5° C, 1 month): RRT 1.06: 0.16%
- Related Substances RRT 1.08 (Method B sample, 5° C, 1 month): RRT 1.08: 0.06%
- Related Substances RRT 1.22 (Method B sample, 5° C, 1 month): RRT 1.22: 0.05%
- Related Substances Total (Method B sample, 5° C, 1 month): Total: 0.3%
- Water Content USP<921 Method 1c> (Method B sample, 5° C, 1 month): 1.51%
- pH (USP<791>) (Method B sample, 5° C, 1 month): 4.4
- Appearance [11]: Off-white powder
- Appearance (Reconstituted Solution) [11]: Clear, colorless
- Compound I by HPLC assay [11]: 101.2%
- Related Substances RRT 0.17 [11]: RRT 0.17: 0.05%
- Related Substances RRT 1.04 [11]: RRT 1.04: 0.08%
- Related Substances RRT 1.05 [11]: RRT 1.05: 0.19%
- Related Substances Total [11]: Total: 0.3%
- Water Content USP<921 Method 1c> [11]: 1.19%
- pH (USP<791>) [11]: 4.5
- Appearance [12]: Off-white powder
- Appearance (Reconstituted Solution) [12]: Clear, colorless
- Compound I by HPLC assay [12]: 100.7%
- Related Substances RRT 1.05 [12]: RRT 1.05: 0.13%
- Related Substances Total [12]: Total: 0.1%
- Water Content USP<921 Method 1c> [12]: 1.25%
- pH (USP<791>) [12]: 4.5
- Appearance (Method B sample, 5° C, Initial): White powder
- Appearance (Reconstituted Solution) (Method B sample, 5° C, Initial): Clear, colorless
- Compound I by HPLC assay (Method B sample, 5° C, Initial): 100.2%
- Related Substances RRT 0.96 (Method B sample, 5° C, Initial): RRT 0.96: 0.05%
- Related Substances RRT 1.04 (Method B sample, 5° C, Initial): RRT 1.04: 0.05%
- Related Substances RRT 1.06 (Method B sample, 5° C, Initial): RRT 1.06: 0.17%
- Related Substances RRT 1.08 (Method B sample, 5° C, Initial): RRT 1.08: 0.06%
- Related Substances Total (Method B sample, 5° C, Initial): Total:0.3%
- Water Content USP<921 Method 1c> (Method B sample, 5° C, Initial): 1.12%
